# Assay results from article PMC5059851, “Inhibition of Hedgehog-dependent tumors and cancer stem cells by a newly identified naturally occurring chemotype” (Cell Death & Disease, 2016).
# Entries after “also recorded” stand apart in the source; their conditions may differ.
# Legend:
# [1] = molecular target: T1, human Smo WT (Homo sapiens, UniProt Q99835); test: Bodipy-Cyclopamine (BC) binding assay, HEK293T cells transfected with human Smo WT; conditions: BC (5 nM) displacement, transiently transfected 293T cells
# T1 construct: Myc-DDK; expressed in transfected cells; host or cells: HEK293T
# Experimental: (§1) Cells were washed in PBS supplemented with 0.5% fetal bovine serum, fixed in 4% paraformaldehyde in phosphate-buffered saline (PBS) for 10 min, and incubated for 2 h at 37 °C both in the same medium supplemented with Bodipy-Cyclopamine (5 nM) and the studied compounds. The cells were permeabilized with Triton X100 (Sigma) 0.2%. Dako Fluorescent mounting (Dako, Carpinteria, CA, USA) was used as mounting medium and Hoechst reagent for staining of the cell nuclei. Bodipy (green) and Hoechst (blue) signals were analyzed in three to four representative fields per coverslip (× 20 magnification, 1000 cells/field). Data were expressed as percentage of BC incorporation observed with BC alone.[95]
# [2] = molecular target: T2, human Smo D473H (Homo sapiens, UniProt Q99835, D473H); test: Bodipy-Cyclopamine (BC) binding assay, HEK293T cells transfected with human Smo D473H
# T2 construct: Myc-DDK; expressed in transfected cells; host or cells: HEK293T
# Experimental: as §1
# [3] = molecular target: T3, murine Smo D477G (Mus musculus, UniProt P56726, D477G); test: Bodipy-Cyclopamine (BC) binding assay, HEK293T cells transfected with mouse Smo D477G
# T3 construct: Flag; expressed in transfected cells; host or cells: HEK293T
# Experimental: as §1
# BC binding (green) is visualized using fluorescence microscopy in a representative field (a). […] Quantitative data are the average BC intensity from five independent fluorescence microscopy images.
# [4] = system: AP1/Jun pathway; test: AP1/Jun luciferase reporter assay (MMP1-luciferase reporter and c-Jun) in MEFs WT; type: cell-based, mouse; conditions: increasing concentrations, 24 h
# Experimental: Figure 2 Compound 12 inhibits Hh signaling without affecting AP1/Jun and WNT/β-Catenin pathways. (a) The graphs show the Hh target genes expression levels in Ptch1^−/− MEFs treated for 48 h with 12 or DMSO as control. mRNA levels were determined by quantitative real-time PCR (qRT-PCR) normalized to endogenous control (β2-microglobulin and HPRT). Pfkfb3 gene was used as negative control. *P<0.05 versus CTR. (b and c) AP1/Jun and WNT/β-Catenin pathways activity were assayed in MEFs WT transfected with MMP1-luciferase reporter and c-Jun (b) or Top Flash-luciferase reporter and β-Catenin (c), respectively, in the presence or absence of increasing concentrations of compound 12. Treatment time was 24 h, and normalization was against Renilla luciferase.
# [5] = system: Gli1 mRNA; test: Gli1 mRNA (qRT-PCR) in primary MB cells from Ptch1+/− mice; type: cell-based, mouse; conditions: ex vivo cultures from Ptch1^+/− mice MBs
# Experimental: (§2) Total RNA was isolated with Trizol (Invitrogen/Life Technologies, Carlsbad, CA, USA) and reverse transcribed with SensiFAST cDNA Synthesis Kit (Bioline Reagents Limited, London, UK). Quantitative real-time PCR (Q-PCR) analysis of Gli1, Gli2, Ptch1, Bmp2, Pfkfb3, CycD1, CycD2, Pcna, Oct4, Nanog, β-2 microglobulin, β-actin and HPRT mRNA expression was performed on each cDNA sample using the VIIA7 Real Time PCR System employing Assay-on-Demand Reagents (Life Technologies).
# [6] = system: murine Ptch1^+/− MB stem-like cells; test: MB stem cells neurosphere-forming assay; type: cell-based, mouse; conditions: 7 days of treatment, increasing concentrations
# Experimental: Figure 5 Compound 12 inhibition of Hh-dependent MB tumor cell growth. […] (a and b) After the indicated times, a trypan blue count was performed to determine the growth rate of viable cells. (c) Gli1 mRNA expression levels were determined by qRT-PCR normalized to endogenous control (β2-microglobulin and HPRT). (d–f) Compound 12 inhibits MB-SCs self-renewal. (d) Suspension of single MB-SCs isolated from Ptch1^+/− mice were cultured in stem cell medium to allow the formation of primary neurospheres. Primary neurospheres were dissociated and treated with increasing concentrations of compound 12, Cyclopamine or DMSO only. After 7 days of treatment, the number of secondary neurospheres derived from a known number of single cells was counted. The self-renewal MB-SCs' capability is expressed as percentage of neurosphere-forming cells. (e) Representative bright-field images of tumor neurospheres after compound 12 or Cyclopamine treatment are also shown. (f) MB-SCs isolated from Ptch1^+/− mice MBs were treated for 48 h with compound 12 or DMSO only. qRT-PCR analysis show Hh, proliferation and stemness target mRNA. For qRT-PCR, results were normalized to endogenous control (β2-microglobulin and HPRT). […]
# Cell proliferation was evaluated by BrdU detection (Roche, Welwyn Garden City, UK). […] At least 500 nuclei were counted in triplicate, and the number of BrdU-positive nuclei was recorded. […]
# [7] = system: ASZ001 BCC allografts; test: ASZ001 BCC allograft in NOD/SCID mice; type: in vivo, mouse; conditions: 50 mg/kg s.c. every second day, versus vehicle
# [8] = system: human medulloblastoma DAOY cells; test: Trypan blue growth count of DAOY cells; type: cell-based; conditions: versus Cyclopamine, Vismodegib, LDE-225
# Experimental: (§3) After the indicated times, a trypan blue count was performed to determine the growth rate. […] Results were normalized to endogenous control (β-actin and HPRT).
# Cell proliferation was evaluated by BrdU detection (Roche, Welwyn Garden City, UK). Briefly, after the BrdU pulse (24 h for GCPs) cells were fixed with 4% paraformaldehyde and permeabilized with 0.2% Triton X-100, and BrdU detection was performed according to the manufacturer's instructions. Nuclei were counterstained with Hoechst reagent. At least 500 nuclei were counted in triplicate, and the number of BrdU-positive nuclei was recorded. To determine the growth rate of viable cells, a trypan blue count was performed after a treatment period of 24–48–72 h with studied compound.
# [9] = system: Gli1 mRNA; test: Gli1 mRNA (qRT-PCR) in DAOY cells; type: cell-based, human; conditions: after treatment
# Experimental: as §3, §2
# [10] = system: Gli1 mRNA; test: Gli1 mRNA (qRT-PCR) in 22Rv1 cells; type: cell-based, human; conditions: after treatment
# Experimental: as §3, §2
# [11] = system: Hh target genes in SuFu^−/− MEFs; test: qRT-PCR of endogenous Hh target genes in SuFu−/− MEFs; type: cell-based, mouse; conditions: 48 h
# Experimental: as §2
# [12] = BC (5 nM) displacement, transiently transfected 293T cells
# T2 sequence (Q99835 28-787 D473H): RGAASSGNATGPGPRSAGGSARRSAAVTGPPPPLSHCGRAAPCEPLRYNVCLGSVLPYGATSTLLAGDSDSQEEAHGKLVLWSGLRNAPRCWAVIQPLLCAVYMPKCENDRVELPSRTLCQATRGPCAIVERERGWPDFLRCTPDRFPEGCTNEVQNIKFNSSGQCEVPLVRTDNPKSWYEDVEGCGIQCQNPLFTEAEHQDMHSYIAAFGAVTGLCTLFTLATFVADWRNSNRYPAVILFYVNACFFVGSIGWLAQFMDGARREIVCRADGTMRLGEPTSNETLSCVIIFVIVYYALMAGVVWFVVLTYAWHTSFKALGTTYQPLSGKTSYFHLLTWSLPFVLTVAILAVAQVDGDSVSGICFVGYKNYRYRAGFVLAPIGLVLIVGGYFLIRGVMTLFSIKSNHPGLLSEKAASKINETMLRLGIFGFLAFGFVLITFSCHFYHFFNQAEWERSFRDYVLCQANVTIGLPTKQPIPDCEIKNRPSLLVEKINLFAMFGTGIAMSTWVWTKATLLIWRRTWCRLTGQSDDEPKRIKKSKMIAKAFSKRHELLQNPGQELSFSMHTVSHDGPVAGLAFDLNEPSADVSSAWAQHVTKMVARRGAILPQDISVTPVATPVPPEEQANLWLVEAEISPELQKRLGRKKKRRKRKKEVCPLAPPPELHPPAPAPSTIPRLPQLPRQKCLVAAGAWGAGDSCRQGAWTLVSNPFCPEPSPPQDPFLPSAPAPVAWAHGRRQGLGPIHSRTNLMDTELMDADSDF
# T3 sequence (P56726 33-793 D477G): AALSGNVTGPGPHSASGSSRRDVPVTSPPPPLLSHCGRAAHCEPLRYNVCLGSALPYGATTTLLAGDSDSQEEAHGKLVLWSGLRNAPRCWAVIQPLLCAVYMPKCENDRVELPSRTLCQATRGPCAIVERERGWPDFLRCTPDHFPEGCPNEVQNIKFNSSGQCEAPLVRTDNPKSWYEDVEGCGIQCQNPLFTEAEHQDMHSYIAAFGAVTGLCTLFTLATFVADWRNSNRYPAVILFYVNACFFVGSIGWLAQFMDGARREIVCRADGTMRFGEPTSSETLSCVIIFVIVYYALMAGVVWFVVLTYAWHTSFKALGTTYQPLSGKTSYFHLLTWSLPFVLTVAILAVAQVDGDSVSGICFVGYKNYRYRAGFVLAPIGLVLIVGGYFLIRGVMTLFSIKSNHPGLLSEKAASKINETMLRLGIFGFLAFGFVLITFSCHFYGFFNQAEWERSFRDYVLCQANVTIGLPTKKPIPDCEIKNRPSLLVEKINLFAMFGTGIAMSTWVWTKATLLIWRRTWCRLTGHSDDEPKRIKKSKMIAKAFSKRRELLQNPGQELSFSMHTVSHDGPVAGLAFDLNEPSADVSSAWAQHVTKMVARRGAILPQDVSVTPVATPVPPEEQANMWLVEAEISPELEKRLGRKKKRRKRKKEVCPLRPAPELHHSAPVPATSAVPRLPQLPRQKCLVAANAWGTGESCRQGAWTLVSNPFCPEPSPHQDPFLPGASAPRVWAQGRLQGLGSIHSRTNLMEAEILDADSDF
# T1 sequence (Q99835 28-787): as the sequence (Q99835 28-787 D473H) above, with H446D counted along it
smiles,measurement,setting,value
"COc1ccc(C=CC(=O)c2cc(OC)c(OC)cc2OC)cc1OC [Compound 12, 3-(3,4-dimethoxy-phenyl)-1-(2,4,5-trimethoxy-phenyl)-2-propen-1-one]",IC50,[1],24.5 µM
same,IC50,[2]; [12],22.7 µM
same,activity on the D473H drug-resistant Smo mutant,[2]; BC displacement assay,active
same,Fold shift human Smo,[2]; IC50 Smo D473H / IC50 Smo WT,0.9257
same,loss of affinity for the resistant Smo mutants in binding assay,[2]; resistant Smo mutants versus WT,conserved the same affinity
same,IC50,[3]; [12],56.7 µM
same,inhibition of BC binding to mouse Smo D477G mutant,"[3]; HEK293T cells, various concentrations",significantly inhibited BC binding
same,Fold shift murine Smo,[3]; IC50 Smo D477G / IC50 Smo WT,1.243
same,luciferase activity driven by Jun/AP1 signaling,[4],without affecting luciferase activity; also recorded: inactive
same,Gli1 mRNA levels in primary MB cells,[5],decrease of Gli1 mRNA levels
same,clonogenic self-renewal ability (neurosphere formation),[6],suppressed
same,tumor cell growth (tumor volume) in BCC allograft,[7]; 18 days,reduction of tumor cell growth
same,percentage of Ki67 labeling in allograft tumors,[7],decreased percentage of Ki67 labeling
same,inhibition of DAOY cell proliferation,[8],higher activity than other Smo antagonists
same,Gli1 mRNA levels in DAOY cells,[9],significant decrease of Gli1 mRNA levels
same,Gli1 mRNA levels in 22Rv1 cells,[10],significant decrease of Gli1 mRNA levels
same,expression of endogenous Hh target genes in SuFu^−/− MEFs,[11],suppressed the expression of endogenous Hh target genes
